According to publication PMC11093748, “De novo identification of CD4^+ T cell epitopes” (Nature Methods, 2024):

Key:
Type in all cases: cell-based, human
Jurkat cells, No TCR = assay: Single SABR-II co-incubation, background without TCR
How it was run: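 Single SABR-II constructs for putative cognate epitopes were expressed in CellTrace Violet-labelled NFAT–GFP Jurkat cells and co-incubated 1:1 (5 × 10^5 each) with TCR-expressing Jurkat cells for 16–20 h. GFP (with CD69 staining when indicated) was measured by flow cytometry. Wells with GFP above the no-TCR control were scored positive.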

GSE.20D11 TCR = assay: Single SABR-II co-incubation, NFAT-GFP Jurkat (HLA-DQ8); details: HLA-DQ8 SABR-II
Description: (§1) We have previously described SABRs, which are chimeric receptors containing an extracellular pMHC complex attached to an intracellular CD28-CD3ζ signaling domain. […] We sought to expand this platform to allow antigen discovery for MHC/HLA-II with seamless integration with class I alleles. Here, we created SABRs to present epitopes in MHC-II alleles, by covalently linking the epitope to the β-chain of MHC-II that is attached to the CD28-CD3ζ signaling domains downstream, along with a 2A peptide-linked MHC-II α-chain (Fig. 1a,b). To test whether SABR-IIs could present epitopes to TCRs and induce a signal, we expressed them using lentiviral vectors in NFAT–GFP Jurkat cells, which express green fluorescent protein (GFP) upon NFAT activation and translocation downstream of CD3ζ activation (a kind gift from Y. Chen and A. Weiss). We constructed murine SABR-IIs presenting epitopes in I-Ab, I-Ad and I-Ag7 (Ova, […][41]; ATEG, […][42]; and 2.5mimo, […][43], respectively). We co-incubated the SABR-II-expressing NFAT–GFP Jurkat cells with a separate population of Jurkat cells expressing either the BDC2.5 TCR (recognizes I-Ag7-2.5mimo), OT-II TCR (recognizes I-Ab-Ova), 5-4-E8 TCR (recognizes I-Ad-ATEG) or no TCR. […] The signal from the NFAT–GFP reporter offered minimal background in absence of a cognate TCR and correlated with surface SABR expression in the presence of a cognate TCR (Extended Data Fig. 1c–e). […] We confirmed the ability of the DQ8-InsB9:23 SABR-II to present the epitope to two previously described, T1D patient-derived TCRs GSE.6H9 and GSE.20D11 (ref. [46]).
(§2) For SABR library screens, 3 × 10^6 NFAT–GFP Jurkat cells expressing the SABR library were labeled with CellTrace Violet (BioLegend) according to the manufacturer’s protocol before incubation with 3 × 10^6 Jurkat cells expressing the TCR of interest. These mixtures were incubated in a six-well plate for 16–20 h. Cells were stained with anti-CD69-APC-Cy7 where indicated (BioLegend) and the top 1–2% of GFP^+CD69^+ cells were sorted for genomic DNA extraction, indexing and sequencing (see below). Multiplexed assays were scaled on a per-TCR basis (for example 3 × 10^6 for each of three TCRs against 9 × 10^6 library cells). For single SABR assays, unless otherwise defined, 5 × 10^5 SABR expressing NFAT–GFP Jurkat cells (or 5KC cells) were labeled with CellTrace Violet (BioLegend) according to the manufacturer’s protocol before incubation with 5 × 10^5 TCR-expressing Jurkat cells (or 5KC cells) in a round-bottom 96-well plate for 16–20 h. Cells were stained with anti-CD69-APC-Cy7 when indicated and acquired on the Attune NxT flow cytometer (Thermo Fisher Scientific). All flow analysis was performed using FlowJo (BD). For Daudi cell co-culture, 1 × 10^6 Jurkat cells expressing the TCR of interest were incubated with 1 × 10^6 Daudi cells expressing a SABR of interest for 3 days. On day 3, cells were labeled with anti-RT1B-PE and anti-Fas-APC-Cy7 before being acquired on the Attune NxT flow cytometer.

GSE.6H9 TCR = assay: as above; details: HLA-DQ8 SABR-II
Description: as §1, §2

[1] = No TCR, Fig 3B, 18 h, biological replicate 1
[2] = No TCR, Fig 3B, 18 h, biological replicate 2
[3] = No TCR, Fig 3B, 18 h, biological replicate 3
[4] = No TCR, Fig 4B, technical replicate 1
[5] = No TCR, Fig 4B, technical replicate 2

## LQTLALNAARDP
Jurkat cells, No TCR; No TCR, Ext. Data Fig. 6C, 18-20 hr, technical replicate 1
  %GFP+CD69+ cells of SABR-NFAT-GFP-Jurkat cells: 3.08%
Jurkat cells, No TCR; No TCR, Ext. Data Fig. 6C, 18-20 hr, technical replicate 2
  %GFP+CD69+ cells of SABR-NFAT-GFP-Jurkat cells: 3.07%
Jurkat cells, No TCR; [1]
  %GFP+CD69+ cells of SABR-NFAT-GFP-Jurkat cells: 2.51%
Jurkat cells, No TCR; [2]
  %GFP+CD69+ cells of SABR-NFAT-GFP-Jurkat cells: 6.93%
Jurkat cells, No TCR; [3]
  %GFP+CD69+ cells of SABR-NFAT-GFP-Jurkat cells: 3.6%
Jurkat cells, No TCR; [4]
  %GFP+CD69+ cells of SABR-NFAT-GFP-Jurkat cells: 1.39%
Jurkat cells, No TCR; [5]
  %GFP+CD69+ cells of SABR-NFAT-GFP-Jurkat cells: 1.36%
Jurkat cells, No TCR; No TCR, Fig 5C, technical replicate 1
  %GFP+CD69+ cells of SABR-NFAT-GFP-Jurkat cells: 0.73%
Jurkat cells, No TCR; No TCR, Fig 5C, technical replicate 2
  %GFP+CD69+ cells of SABR-NFAT-GFP-Jurkat cells: 0.75%

## SHLVEALYLVCGERG
GSE.20D11 TCR
  frequency of GFP+CD69+ cells (in words): high frequency of GFP^+CD69^+ cells
GSE.6H9 TCR
  frequency of GFP+CD69+ cells (in words): high frequency of GFP^+CD69^+ cells
Jurkat cells, No TCR; Mock TCR, Fig 4B, technical replicate 1
  %GFP+CD69+ cells of SABR-NFAT-GFP-Jurkat cells: 3.46%
Jurkat cells, No TCR; Mock TCR, Fig 4B, technical replicate 2
  %GFP+CD69+ cells of SABR-NFAT-GFP-Jurkat cells: 3.03%
Jurkat cells, No TCR; [1]
  %GFP+CD69+ cells of SABR-NFAT-GFP-Jurkat cells: 2%
Jurkat cells, No TCR; [2]
  %GFP+CD69+ cells of SABR-NFAT-GFP-Jurkat cells: 3.5%
Jurkat cells, No TCR; [3]
  %GFP+CD69+ cells of SABR-NFAT-GFP-Jurkat cells: 1.84%
Jurkat cells, No TCR; [4]
  %GFP+CD69+ cells of SABR-NFAT-GFP-Jurkat cells: 0.93%
Jurkat cells, No TCR; [5]
  %GFP+CD69+ cells of SABR-NFAT-GFP-Jurkat cells: 1.04%
Jurkat cells, No TCR; No TCR, Fig 4B, technical replicate 3
  %GFP+CD69+ cells of SABR-NFAT-GFP-Jurkat cells: 1.2%
